Experimental data published in publication PMC3913620, “Preclinical Evaluation of the Novel, Orally Bioavailable Selective Inhibitor of Nuclear Export (SINE) KPT-335 in Spontaneous Canine Cancer: Results of a Phase I Study” (PLoS ONE, 2014).

Assays:
[1] = Single oral dose pharmacokinetics in healthy dogs; assay type: in vivo; details: male, beagle, dog, plasma, 1.5 mg/kg single oral dose, fed, 6 dogs
Experimental: KPT-335 was administered as a single oral dose in capsule formulation to 6 male beagle dogs at approximately 1.5 mg/kg following a meal. Serial blood samples were collected from each dog prior to dosing and at 0.25, 0.5, 1, 2, 4, 6, 8, 12, 18, 24 and 48 hours post-dose and placed into tubes containing K2EDTA. Blood samples were stored on wet ice until processed to plasma by centrifugation at 3500 rpm for 10 minutes at 5°C. Plasma samples were stored in at −80°C until analysis at Agilux Laboratories (Worcester, MA). Plasma samples were analyzed for parent drug concentration using sample preparation by protein precipitation and then analysis by LC-MS/MS using propranolol as the internal standard. The method was qualified for use (a single batch to assess method performance: precision and accuracy; linearity of dilution; and matrix specificity) prior to initiation of sample analysis. Acceptance criteria for calibration standards and quality control samples were within ±30% nominal concentration. Individual animal pharmacokinetic parameter values were derived by the pharmacokinetic analysis program Phoenix WinNonlin version 6.3 (Pharsight Corporation), using the non-compartmental Model 200 with uniform weighting. The single-dose pharmacokinetic parameters assessed include: Cmax (maximum concentration observed); Tmax (time of observed maximum concentration); AUC0→∞ (area under the concentration-time curve from time zero extrapolated to infinity); AUC0→last (area under the concentration-time curve from time zero to the time of the last quantifiable concentration); and t1/2 (terminal half life). Descriptive statistical data (mean, standard deviation, and standard error of the mean) were calculated from the unrounded numbers in an Excel (Microsoft) spreadsheet. Concentration results, means, and calculated parameters were reported to 3 significant figures.

CLBL1 DLBCL cells = test: MTS cell viability assay, CLBL1; assay type: cell-based, canine; details: Canis lupus familiaris, CLBL-1, 72 hours, read-out: IC50 (± S.D.), CLBL1
Experimental: (§1) Cryopreserved tumor cells obtained from sterile lymph node biopsy samples from dogs with diffuse large B cell lymphoma (DLBCL) were cultured with 100 ng/mL of megaCD40L (Enzo Life Science, Plymouth Meeting, PA) as previously described, [27]. The human T-cell leukemia cell line, Jurkat, was from the American Type Culture Collection (ATCC, Manassas, VA) and cultured in RPMI1640 medium (Gibco/BRL, Grand Island, NY) containing 10% fetal bovine serum (FBS; Atlas Biologicals, Fort Collins, CO), 2-mercaptoethanol (Gibco/BRL), HEPES, L-glutamine, sodium pyruvate (Mediatech Inc., Manassas, VA), non-essential amino acids (Sigma Aldrich, St. Louis, MO), and Primocin (Invivogen, San Diego, CA). […]
(§2) Cell viability for lymphoid lines was determined by the MTS (3-(4, 5-dimethylthiazol-2-yl)-5-(3-carboxymethoxyphenyl)-2-(4-sulfophenyl)-2H-tetrazolium) assay using CellTiter 96® AQueous One Solution Cell Proliferation Assay Kit (Promega, Madison, WI). […] After 72 hours, 20 µL of MTS solution was added to each well and cells were incubated for another 4 hours before measuring absorbance at 490 nm using a Wallac Victor 1420 Multilabel Counter (Perkin Elmer, Waltham, MA). The IC50 of SINE was calculated using Prism 6 software (GraphPad Software, Inc., La Jolla, CA).

OCI-Ly10 DLBCL cells = test: MTS cell viability assay, OCI-Ly10; assay type: cell-based, human; details: Homo sapiens, OCI-Ly10, 72 hours, read-out: IC50 (± S.D.), OCI-Ly10
Experimental: as §1, §2

O=C(/C=C\n1cnc(-c2cc(C(F)(F)F)cc(C(F)(F)F)c2)n1)NNc1ccccn1 [KPT-335]
Cmax ([1]; po, 1.5 mg/kg, capsule): ~250 ng/mL
Tmax ([1]; po, 1.5 mg/kg, capsule): ~4 h
AUC [1]: 1800 ng·h/mL
AUC(0-inf) ([1]; capsule): 1810 ng·h/mL
AUC(0-t) ([1]; capsule, read-out: AUC0-last, mean): 1760 ng·h/mL
half-life ([1]; capsule, read-out: t1/2, mean (converted)): 3.88 h
IC50 (CLBL1 DLBCL cells): 8.5 ± 4.1 nM
IC50 (OCI-Ly10 DLBCL cells): 41.8 ± 21 nM
